ChEMBL document CHEMBL2010660, “Synthesis, SAR and biological evaluation of 1,6-disubstituted-1H-pyrazolo[3,4-d]pyrimidines as dual inhibitors of Aurora kinases and CDK1” (Bioorg Med Chem Lett, 2012)
pIC50: −log10 of the molar value. The source made the active and inactive calls. The rule behind the calls is not given here.

Assays:
Aurora kinase B [1] = target: T1, Aurora kinase B (Homo sapiens, UniProt Q96GD4); assay: Inhibition of aurora B kinase
HCT-116 [2] = assay: Cell cycle arrest in human HCT116 cells assessed as minimum concentration required for G2/M versus G1 peak ratio over 2; assay type: functional
Aurora kinase A = target: T2, Aurora kinase A (Homo sapiens, UniProt O14965); assay: Inhibition of aurora A kinase
T2 sequence (O14965 whole entry): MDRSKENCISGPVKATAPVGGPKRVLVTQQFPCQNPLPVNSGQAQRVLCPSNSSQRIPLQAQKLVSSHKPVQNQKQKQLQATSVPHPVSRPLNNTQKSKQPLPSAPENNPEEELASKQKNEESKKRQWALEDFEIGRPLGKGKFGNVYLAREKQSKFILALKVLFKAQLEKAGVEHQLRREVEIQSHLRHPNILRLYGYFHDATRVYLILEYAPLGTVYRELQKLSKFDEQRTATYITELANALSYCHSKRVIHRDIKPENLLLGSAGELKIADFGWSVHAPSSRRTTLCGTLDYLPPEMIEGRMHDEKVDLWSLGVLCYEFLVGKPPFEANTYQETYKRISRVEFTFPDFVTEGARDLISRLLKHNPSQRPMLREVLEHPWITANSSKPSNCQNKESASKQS

[3] = target: Cyclin-dependent kinase 1 (Homo sapiens, UniProt P06493); assay: Inhibition of CDK1
Cyclin-dependent kinase 1, sequence (P06493 whole entry): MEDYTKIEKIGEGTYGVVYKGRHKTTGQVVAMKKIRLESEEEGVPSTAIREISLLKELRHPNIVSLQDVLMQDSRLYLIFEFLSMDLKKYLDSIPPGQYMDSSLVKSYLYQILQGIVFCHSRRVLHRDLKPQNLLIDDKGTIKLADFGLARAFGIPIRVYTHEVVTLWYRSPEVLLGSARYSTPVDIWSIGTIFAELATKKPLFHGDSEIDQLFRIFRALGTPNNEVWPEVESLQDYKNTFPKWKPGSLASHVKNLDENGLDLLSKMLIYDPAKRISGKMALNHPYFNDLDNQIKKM

[4] = Metabolic stability in mouse liver microsome assessed as ratio of clearance to hepatic blood flow; assay type: ADME; settings: liver microsomes, read-out: QH
HCT-116 [5] = assay: Cytotoxicity against human HCT116 cells after 5 days by MTS assay; assay type: functional, cell-based; settings: HCT-116, 120 h
[6] = Toxicity in human BMNC assessed as granulocyte/monocyte colony forming units ratio after 14 days by microscopic analysis; settings: 336 h
[7] = AUC in rat at 4 mg/kg, iv; assay type: ADME, organism-based; parameters: dose 4 mg/kg, route intravenous; settings: plasma
Rattus norvegicus [8] = assay: Apparent volume of distribution in rat at 4 mg/kg, iv; assay type: ADME, organism-based; parameters: dose 4 mg/kg, route intravenous; settings: in vivo
[9] = target: T3, Aurora kinase A (Homo sapiens) (UniProt O14965); assay: Inhibition of aurora A kinase phosphorylation in human K562 cells at 0.003 to 1 uM by Western blot analysis; assay type: cell-based
T3 sequence (whole entry): T2 sequence (O14965 whole entry)

Mus musculus [10] = assay: Toxicity in nu/nu mouse xenografted with human HCT116 cells assessed as reluctance to move at 12.5 to 40 mg/kg, ip qd for 21 days; assay type: organism-based, HCT-116; parameters: dose 12.5-40 mg/kg, route intraperitoneal; settings: in vivo, 504 h
Mus musculus [11] = assay: Inhibition of CDK1 in mouse serum assessed as decrease in histone H1 phosphorylation at 25 mg/kg, ip measured after 2 hrs; assay type: functional; settings: route intraperitoneal
Mus musculus [12] = assay: Inhibition of CDK1 in mouse serum assessed as decrease in histone H3 phosphorylation at 25 mg/kg, ip measured after 2 hrs; assay type: functional; settings: route intraperitoneal
Rattus norvegicus [13] = assay: Half life in rat at 4 mg/kg, iv; assay type: ADME, organism-based; parameters: dose 4 mg/kg, route intravenous; settings: in vivo
[14] = AUC in mouse at 25 mg/kg, ip; assay type: ADME, organism-based; parameters: dose 25 mg/kg, route intraperitoneal; settings: plasma
Mus musculus [15] = assay: Apparent volume of distribution in mouse at 25 mg/kg, ip; assay type: ADME, organism-based; parameters: dose 25 mg/kg, route intraperitoneal; settings: in vivo
Mus musculus [16] = assay: Toxicity in nu/nu mouse xenografted with human HCT116 cells assessed as mortality at 12.5 to 40 mg/kg, ip qd for 21 days; assay type: organism-based, HCT-116; parameters: dose 12.5-40 mg/kg, route intraperitoneal; settings: in vivo, 504 h
Mus musculus [17] = assay: Toxicity in nu/nu mouse xenografted with human HCT116 cells assessed as hunched posture at 12.5 to 40 mg/kg, ip qd for 21 days; assay type: organism-based, HCT-116; parameters: dose 12.5-40 mg/kg, route intraperitoneal; settings: in vivo, 504 h
Aurora kinase B [18] = target: T1, Aurora kinase B; assay: Inhibition of aurora B kinase phosphorylation in human K562 cells at 0.003 to 1 uM by Western blot analysis; assay type: cell-based
Mus musculus [19] = assay: Toxicity in nu/nu mouse xenografted with human HCT116 cells assessed as weight loss at 12.5 to 40 mg/kg, ip qd for 21 days; assay type: organism-based, HCT-116; parameters: dose 12.5-40 mg/kg, route intraperitoneal; settings: in vivo, 504 h
HCT-116 [20] = assay: Antitumor activity against human HCT116 cells xenografted in nu/nu mouse assessed as tumor growth inhibition at 12.5 to 40 mg/kg, ip qd for 21 days; assay type: functional; settings: dose mg/kg 12.5-40; route intraperitoneal
[21] = Clearance in mouse at 25 mg/kg, ip; assay type: ADME, organism-based; parameters: dose 25 mg/kg, route intraperitoneal; settings: in vivo
Mus musculus [22] = assay: Inhibition of aurora A kinase in mouse assessed as increase in histone H3 phosphorylation at 25 mg/kg, ip measured after 6 hrs; assay type: functional, organism-based; parameters: dose 25 mg/kg
Mus musculus [23] = assay: Inhibition of aurora A in mouse assessed as increase in histone H3 phosphorylation at 25 mg/kg, ip measured after 9 hrs; assay type: functional, organism-based; parameters: dose 25 mg/kg
[24] = Half life in mouse at 25 mg/kg, ip; assay type: ADME, organism-based; parameters: dose 25 mg/kg, route intraperitoneal; settings: in vivo

T1 sequence (Q96GD4 whole entry): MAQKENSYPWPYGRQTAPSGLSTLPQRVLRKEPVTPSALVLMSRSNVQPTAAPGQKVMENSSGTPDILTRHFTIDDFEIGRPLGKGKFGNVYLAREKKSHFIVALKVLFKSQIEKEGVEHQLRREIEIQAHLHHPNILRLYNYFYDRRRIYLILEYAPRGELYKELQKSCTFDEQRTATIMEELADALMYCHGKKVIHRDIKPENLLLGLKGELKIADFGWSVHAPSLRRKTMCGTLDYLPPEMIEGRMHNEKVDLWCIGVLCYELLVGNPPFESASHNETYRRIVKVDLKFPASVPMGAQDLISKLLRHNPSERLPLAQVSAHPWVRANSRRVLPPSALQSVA

SMILES	pIC50 (Aurora kinase B [1])	pIC50 (Aurora kinase A)	pIC50 [3]	hepatic extraction ratio [4]	Activity (HCT-116 [2])	pIC50 (HCT-116 [5])	further results
Cn1cc(Nc2ncc3cnn([C@@H]4C[C@H]5C[C@H]5C4)c3n2)cc1C(=O)N1CCC[C@@H]1CN1CCOCC1	8.40	8.82	6.41		0.03 µM	7.62	
O=C1N=C(NCc2cccs2)S/C1=C\c1ccc2ncccc2c1						5.49	
O=C(O)c1ccc(Nc2ncc3c(n2)-c2ccc(Cl)cc2C(c2c(F)cccc2F)=NC3)cc1 [MLN-8054]						6.16	
Cn1cc(Nc2ncc3cnn([C@@H]4C[C@H]5C[C@H]5C4)c3n2)cc1C(N)=O	8.40	7.77	7.62	0.69	0.1 µM	7.10	
Cn1cc(Nc2ncc3cnn([C@@H]4C[C@H]5C[C@H]5C4)c3n2)cc1C(=O)N1CCC[C@H]1C(N)=O	8.40	8.22	8.00		0.03 µM	7.33	
CNC[C@@H]1CCCN1C(=O)c1cc(Nc2ncc3cnn([C@@H]4C[C@H]5C[C@H]5C4)c3n2)cn1C	7.30	7.10	5.92		0.3 µM	6.82	
Cn1cc(Nc2ncc3cnn(C4CCC(C)(C)CC4)c3n2)cc1C(N)=O	8.30	7.52	7.62	0.92	0.1 µM	7.00	
COC[C@@H]1CCCN1C(=O)c1cc(Nc2ncc3cnn([C@@H]4C[C@H]5C[C@H]5C4)c3n2)cn1C	8.30	8.40	7.66		0.03 µM	8.00	Ratio [6]: 32; AUC [7]: 1230 ng·h/mL; Vz (Rattus norvegicus [8]): 5 L/kg; inhibition [9]: Active; Activity (Mus musculus [10]): Toxic; inhibition in vivo at 25 mg/kg (Mus musculus [11]): 60%; inhibition in vivo at 25 mg/kg (Mus musculus [12]): 90%; t1/2 (Rattus norvegicus [13]): 5 h; AUC [14]: 6420 ng·h/mL; Vz (Mus musculus [15]): 3 L/kg; Activity (Mus musculus [16]): Toxic; Activity (Mus musculus [17]): Toxic; inhibition (Aurora kinase B [18]): Active; Activity (Mus musculus [19]): 2%; TGI (HCT-116 [20]): 30%; CL/F [21]: 65 mL/min/kg; inhibition (Mus musculus [22]): Active; inhibition (Mus musculus [23]): Active; half-life [24]: 1 h
Cn1cc(Nc2ncc3cnn([C@@H]4C[C@H]5C[C@H]5C4)c3n2)cc1C(=O)N1CCCC1	7.40	7.77	7.39		0.1 µM	7.02	
Cn1cc(Nc2ncc3cnn([C@@H]4C[C@H]5C[C@H]5C4)c3n2)cc1C(=O)N1CCC[C@H]1CN1CCCC1	8.30	8.00	7.33		0.03 µM	7.96	

Second part, led by results:

pIC50 (Aurora kinase B [1])	pIC50 (Aurora kinase A)	pIC50 [3]	hepatic extraction ratio [4]	SMILES	Activity (HCT-116 [2])	pIC50 (HCT-116 [5])	further results
7.92	7.68	7.80	0.76	Cn1cc(Nc2ncc3cnn([C@H]4CC[C@H]5CCC[C@H]54)c3n2)cc1C(N)=O	0.3 µM	6.64	
7.74	7.60	7.42	0.89	Cn1cc(Nc2ncc3cnn(C4C5CC6CC(C5)CC4C6)c3n2)cc1C(N)=O (stereo not given)	0.3 µM	6.57	
8.22	7.80	6.82		COC[C@H]1CCCN1C(=O)c1cc(Nc2ncc3cnn([C@@H]4C[C@H]5C[C@H]5C4)c3n2)cn1C	0.065 µM	7.22	
8.40	8.52	7.68		Cn1cc(Nc2ncc3cnn([C@@H]4C[C@H]5C[C@H]5C4)c3n2)cc1C(=O)N1CCC[C@H]1CN1CCOCC1	0.017 µM	8.10	
7.44	7.00	6.82		Cn1cc(Nc2ncc3cnn([C@@H]4C[C@H]5C[C@H]5C4)c3n2)cc1C(=O)N1CCC[C@@H]1CO	0.1 µM	6.77	
7.72	6.82	7.30	0.89	Cn1cc(Nc2ncc3cnn(C4CCC5(CC5)C4)c3n2)cc1C(N)=O (stereo not given)	0.65 µM	6.54	
8.40	7.72	5.77		CN(C)C(=O)[C@@H]1CCCN1C(=O)c1cc(Nc2ncc3cnn([C@@H]4C[C@H]5C[C@H]5C4)c3n2)cn1C	0.1 µM	6.80	
8.52	8.40	8.00		Cn1cc(Nc2ncc3cnn([C@@H]4C[C@H]5C[C@H]5C4)c3n2)cc1C(=O)N1CCC[C@H]1CO	0.01 µM	7.74	
8.30	7.40	7.72	0.89	Cn1cc(Nc2ncc3cnn(C4CCC5(CC4)CC5)c3n2)cc1C(N)=O	0.3 µM	6.92	
8.40	8.70	7.40		C[C@@H]1CCCN1C(=O)c1cc(Nc2ncc3cnn([C@@H]4C[C@H]5C[C@H]5C4)c3n2)cn1C	0.03 µM	6.89	
7.66	7.89	7.89	0.85	Cn1cc(Nc2ncc3cnn([C@@H]4CC[C@H]5CCC[C@H]54)c3n2)cc1C(N)=O	0.1 µM	7.18	
7.42	6.64	6.80	0.27	CC(C)n1ncc2cnc(Nc3cc(C(N)=O)n(C)c3)nc21	1 µM	6.00	
7.64	7.06	7.82	0.87	Cn1cc(Nc2ncc3cnn(C4CCCCCC4)c3n2)cc1C(N)=O	0.23 µM	6.85	
